From patent US20210045385A1, “PYRIDAZINONE-SUBSTITUTED KETOXIMES AS HERBICIDES” (FMC Corporation, priority 2018, published 2021)

Tests used:
Assay type in all cases: in vivo
[1] = tested on: foxtail, green (green foxtail, Setaria viridis); assay: Test A preemergence, visual plant response rating; details: approx. 10 days
In short: (§1)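 Greenhouse evaluation, approx. 10 days post-spray. Soil: loam + sand. Postemergence stage: 1–2 leaves, height 2–10 cm. Vehicle: non-phytotoxic solvent blend with surfactant. Score: visual injury on a 0 (no effect) to 100 (complete control) scale.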

[2] = tested on: pigweed (Amaranthus retroflexus); assay: Test A preemergence, visual plant response rating; details: approx. 10 days
In short: as §1

[3] = tested on: barnyardgrass (Echinochloa crus-galli); assay: Test A preemergence, visual plant response rating; details: approx. 10 days
In short: as §1

kochia (Kochia scoparia) [4] = assay: Test A preemergence, visual plant response rating; details: approx. 10 days
In short: as §1

[5] = tested on: Italian ryegrass (Lolium multiflorum); assay: Test A preemergence, visual plant response rating; details: approx. 10 days
In short: as §1

[6] = tested on: ragweed (common ragweed, Ambrosia elatior); assay: Test A preemergence, visual plant response rating; details: approx. 10 days
In short: as §1

[7] = tested on: sedge, umbrella (small-flower umbrella sedge, Cyperus difformis); assay: Test B flooded paddy test, visual plant response rating; details: 250 g ai/ha, Flood, applied to paddy water, 2-leaf stage, evaluated after 13 to 15 days
In short: (§2)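 Rice, umbrella sedge, ducksalad and barnyardgrass grown to 2-leaf stage; pots flooded 3 cm above soil and compound applied directly to paddy water, depth maintained.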

[8] = tested on: barnyardgrass (Echinochloa crus-galli); assay: as above; details: 250 g ai/ha, Flood, applied to paddy water, 2-leaf stage, evaluated after 13 to 15 days
In short: as §2

rice (Oryza sativa) = assay: as above; details: 250 g ai/ha, Flood, applied to paddy water, 2-leaf stage, evaluated after 13 to 15 days
In short: as §2

[9] = tested on: ducksalad (Heteranhera limosa); assay: as above; details: 250 g ai/ha, Flood, applied to paddy water, 2-leaf stage, evaluated after 13 to 15 days
In short: as §2

[10] = tested on: foxtail, green (green foxtail, Setaria viridis); assay: Test A postemergence, visual plant response rating; details: for Foxtail, Green plant response rating (0 to 100 scale): 500 g ai/ha, postemergence, 0 is no effect, 100 is complete control; for Foxtail, Green plant response rating: Postemergence, 125 g ai/ha, 0 to 100 scale (0 no effect, 100 complete control)
In short: as §1

[11] = tested on: pigweed (Amaranthus retroflexus); assay: Test A postemergence, visual plant response rating; details: for Pigweed plant response rating (0 to 100 scale): 500 g ai/ha, postemergence, 0 is no effect, 100 is complete control; for Pigweed plant response rating: Postemergence, 125 g ai/ha, 0 to 100 scale (0 no effect, 100 complete control)
In short: as §1

[12] = tested on: blackgrass (Alopecurus myosuroides); assay: Test A postemergence, visual plant response rating; details: for Blackgrass plant response rating (0 to 100 scale): 500 g ai/ha, postemergence, 0 is no effect, 100 is complete control; for Blackgrass plant response rating: Postemergence, 125 g ai/ha, 0 to 100 scale (0 no effect, 100 complete control)
In short: as §1

[13] = tested on: barnyardgrass (Echinochloa crus-galli); assay: Test A postemergence, visual plant response rating; details: for Barnyardgrass plant response rating (0 to 100 scale): 500 g ai/ha, postemergence, 0 is no effect, 100 is complete control; for Barnyardgrass plant response rating: Postemergence, 125 g ai/ha, 0 to 100 scale (0 no effect, 100 complete control)
In short: as §1

kochia (Kochia scoparia) [14] = assay: Test A postemergence, visual plant response rating; details: for Kochia plant response rating (0 to 100 scale): 500 g ai/ha, postemergence, 0 is no effect, 100 is complete control; for Kochia plant response rating: Postemergence, 125 g ai/ha, 0 to 100 scale (0 no effect, 100 complete control)
In short: as §1

[15] = tested on: Italian ryegrass (Lolium multiflorum); assay: Test A postemergence, visual plant response rating; details: for Ryegrass, Italian plant response rating (0 to 100 scale): 500 g ai/ha, postemergence, 0 is no effect, 100 is complete control; for Ryegrass, Italian plant response rating: Postemergence, 125 g ai/ha, 0 to 100 scale (0 no effect, 100 complete control)
In short: as §1

[16] = tested on: wheat (Triticum aestivum); assay: Test A postemergence, visual plant response rating; details: for Wheat plant response rating (0 to 100 scale): 500 g ai/ha, postemergence, 0 is no effect, 100 is complete control; for Wheat plant response rating: Postemergence, 125 g ai/ha, 0 to 100 scale (0 no effect, 100 complete control)
In short: as §1

corn (Zea mays) = assay: Test A postemergence, visual plant response rating; details: for Corn plant response rating (0 to 100 scale): 500 g ai/ha, postemergence, 0 is no effect, 100 is complete control; for Corn plant response rating: Postemergence, 125 g ai/ha, 0 to 100 scale (0 no effect, 100 complete control)
In short: as §1

[17] = tested on: galium (catchweed bedstraw, Galium aparine); assay: Test A postemergence, visual plant response rating; details: for Galium plant response rating (0 to 100 scale): 500 g ai/ha, postemergence, 0 is no effect, 100 is complete control; for Galium plant response rating: Postemergence, 125 g ai/ha, 0 to 100 scale (0 no effect, 100 complete control)
In short: as §1

[18] = tested on: ragweed (common ragweed, Ambrosia elatior); assay: Test A postemergence, visual plant response rating; details: for Ragweed plant response rating (0 to 100 scale): 500 g ai/ha, postemergence, 0 is no effect, 100 is complete control; for Ragweed plant response rating: Postemergence, 125 g ai/ha, 0 to 100 scale (0 no effect, 100 complete control)
In short: as §1

| SMILES | Foxtail, Green plant response rating (0 to 100 scale) ([1]; 125 g ai/ha Preemergence) | Foxtail, Green plant response rating (0 to 100 scale) ([1]; 500 g ai/ha Preemergence) | Pigweed plant response rating (0 to 100 scale) ([2]; 125 g ai/ha Preemergence) | Pigweed plant response rating (0 to 100 scale) ([2]; 500 g ai/ha Preemergence) | Barnyardgrass plant response rating (0 to 100 scale) ([3]; 125 g ai/ha Preemergence) | Barnyardgrass plant response rating (0 to 100 scale) ([3]; 500 g ai/ha Preemergence) | Kochia plant response rating (0 to 100 scale) (kochia (Kochia scoparia) [4]; 125 g ai/ha Preemergence) | Kochia plant response rating (0 to 100 scale) (kochia (Kochia scoparia) [4]; 500 g ai/ha Preemergence) | Ryegrass, Italian plant response rating (0 to 100 scale) ([5]; 125 g ai/ha Preemergence) | Ryegrass, Italian plant response rating (0 to 100 scale) ([5]; 500 g ai/ha Preemergence) | Ragweed plant response rating (0 to 100 scale) ([6]; 125 g ai/ha Preemergence) | Ragweed plant response rating (0 to 100 scale) ([6]; 500 g ai/ha Preemergence) | Plant response rating, Sedge, Umbrella (0 to 100 scale, 0 is no effect, 100 is complete control) [7] | Plant response rating, Barnyardgrass (0 to 100 scale, 0 is no effect, 100 is complete control) [8] | Plant response rating, Rice (0 to 100 scale, 0 is no effect, 100 is complete control) (rice (Oryza sativa)) | Plant response rating, Ducksalad (0 to 100 scale, 0 is no effect, 100 is complete control) [9] | Foxtail, Green plant response rating (0 to 100 scale) [10] | Foxtail, Green plant response rating [10] | Pigweed plant response rating (0 to 100 scale) [11] | Pigweed plant response rating [11] | also measured |
| --- | --- | --- | --- | --- | --- | --- | --- | --- | --- | --- | --- | --- | --- | --- | --- | --- | --- | --- | --- | --- | --- |
| CO/N=C(\c1cccc(C)c1)c1c(O)c(C)nn(C)c1=O [Compound 13] | 0 | 20 | 90 | 80 | 0 | 80 | 30 | 30 | 50 | 100 | 30 | 100 | 0 | 0 | 0 | 0 | 60 | 10 | 90 | 40 | Blackgrass plant response rating (0 to 100 scale) [12]: 50; Blackgrass plant response rating [12]: 10; Barnyardgrass plant response rating (0 to 100 scale) [13]: 50; Barnyardgrass plant response rating [13]: 10; Kochia plant response rating (0 to 100 scale) (kochia (Kochia scoparia) [14]): 60; Kochia plant response rating (kochia (Kochia scoparia) [14]): 20; Ryegrass, Italian plant response rating (0 to 100 scale) [15]: 90; Ryegrass, Italian plant response rating [15]: 80; Wheat plant response rating (0 to 100 scale) [16]: 0; Wheat plant response rating [16]: 0; Corn plant response rating (0 to 100 scale) (corn (Zea mays)): 10; Corn plant response rating (corn (Zea mays)): 0; Galium plant response rating (0 to 100 scale) [17]: 100; Galium plant response rating [17]: 90; Ragweed plant response rating (0 to 100 scale) [18]: 70; Ragweed plant response rating [18]: 70 |
| Cc1cccc(/C(=N\O)c2c(O)c(C)nn(C)c2=O)c1 [Compound 21] | 0 | 0 | 0 | 0 | 0 | 0 | 0 | 0 | 0 | 0 | 0 | 0 | 0 | 0 | 0 | 0 | 0 | 0 | 60 | 0 | Blackgrass plant response rating (0 to 100 scale) [12]: 0; Blackgrass plant response rating [12]: 0; Barnyardgrass plant response rating (0 to 100 scale) [13]: 0; Barnyardgrass plant response rating [13]: 0; Kochia plant response rating (0 to 100 scale) (kochia (Kochia scoparia) [14]): 10; Kochia plant response rating (kochia (Kochia scoparia) [14]): 0; Ryegrass, Italian plant response rating (0 to 100 scale) [15]: 20; Ryegrass, Italian plant response rating [15]: 0; Wheat plant response rating (0 to 100 scale) [16]: 0; Wheat plant response rating [16]: 0; Corn plant response rating (0 to 100 scale) (corn (Zea mays)): 0; Corn plant response rating (corn (Zea mays)): 0; Galium plant response rating (0 to 100 scale) [17]: 80; Galium plant response rating [17]: 0; Ragweed plant response rating (0 to 100 scale) [18]: 20; Ragweed plant response rating [18]: 0 |
